Data from ChEMBL document CHEMBL3875216, “Synthesis of antimicrobial glucosamides as bacterial quorum sensing mechanism inhibitors” (Bioorg Med Chem, 2017).

What was measured:
Escherichia coli [1] = experiment: Inhibition of LuxR-dependent quorum sensing activity in Escherichia coli MT102 harboring pJBA132 assessed as inhibition of OHHL-induced GFP expression at 2 mM measured after 24 hrs by fluorescence assay relative to control
Escherichia coli [2] = experiment: Growth inhibition of Escherichia coli MT102 at 2 mM after 8 hrs relative to control; settings: MT102, 8 h, read-out: GI
Pseudomonas aeruginosa [3] = experiment: Inhibition of LasR-dependent quorum sensing activity in Pseudomonas aeruginosa MH602 harboring GFP-fused […] LasB promoter assessed as inhibition of 3-oxo-dodecanoyl HSL-induced GFP expression at 1 mM measured after 24 hrs by fluorescence assay relative to control
Pseudomonas aeruginosa [4] = experiment: Inhibition of LasR-dependent quorum sensing activity in Pseudomonas aeruginosa MH602 harboring GFP-fused […] LasB promoter assessed as inhibition of 3-oxo-dodecanoyl HSL-induced GFP expression at 1 mM measured after 8 hrs by fluorescence assay relative to control
Pseudomonas aeruginosa [5] = experiment: Inhibition of LasR-dependent quorum sensing activity in Pseudomonas aeruginosa MH602 harboring GFP-fused […] LasB promoter assessed as inhibition of 3-oxo-dodecanoyl HSL-induced GFP expression at 2 mM measured after 24 hrs by fluorescence assay relative to control
Pseudomonas aeruginosa [6] = experiment: Growth inhibition of Pseudomonas aeruginosa MH602 at 500 uM after 8 hrs relative to control; settings: MH602, 8 h, read-out: GI
[7] = test system: Pseudomonas aeruginosa PA14; experiment: Inhibition of quorum sensing-regulated pyocyanin production in Pseudomonas aeruginosa PA14 at 2 mM after 24 hrs relative to control
Pseudomonas aeruginosa [8] = experiment: Growth inhibition of Pseudomonas aeruginosa MH602 at 1 mM after 8 hrs relative to control; settings: MH602, 8 h, read-out: GI
Pseudomonas aeruginosa [9] = experiment: Growth inhibition of Pseudomonas aeruginosa MH602 at 1 mM after 24 hrs relative to control; settings: MH602, 24 h, read-out: GI
Escherichia coli [10] = experiment: Inhibition of LuxR-dependent quorum sensing activity in Escherichia coli MT102 harboring pJBA132 assessed as inhibition of OHHL-induced GFP expression at 500 uM measured after 24 hrs by fluorescence assay relative to control
Pseudomonas aeruginosa [11] = experiment: Inhibition of LasR-dependent quorum sensing activity in Pseudomonas aeruginosa MH602 harboring GFP-fused […] LasB promoter assessed as inhibition of 3-oxo-dodecanoyl HSL-induced GFP expression at 500 uM measured after 8 hrs by fluorescence assay relative to control
Escherichia coli [12] = experiment: Inhibition of LuxR-dependent quorum sensing activity in Escherichia coli MT102 harboring pJBA132 assessed as inhibition of OHHL-induced GFP expression at 1 mM measured after 8 hrs by fluorescence assay relative to control
Escherichia coli [13] = experiment: Inhibition of LuxR-dependent quorum sensing activity in Escherichia coli MT102 harboring pJBA132 assessed as inhibition of OHHL-induced GFP expression at 500 uM measured after 8 hrs by fluorescence assay relative to control
Pseudomonas aeruginosa [14] = experiment: Inhibition of LasR-dependent quorum sensing activity in Pseudomonas aeruginosa MH602 harboring GFP-fused […] LasB promoter assessed as inhibition of 3-oxo-dodecanoyl HSL-induced GFP expression at 2 mM measured after 8 hrs by fluorescence assay relative to control
Escherichia coli [15] = experiment: Growth inhibition of Escherichia coli MT102 at 500 uM after 8 hrs relative to control; settings: MT102, 8 h, read-out: GI
[16] = test system: Pseudomonas aeruginosa PA14; experiment: Inhibition of quorum sensing-regulated biofilm formation in Pseudomonas aeruginosa PA14 at 2 mM after overnight incubation by crystal violet staining based assay relative to control
Escherichia coli [17] = experiment: Growth inhibition of Escherichia coli MT102 at 1 mM after 24 hrs relative to control; settings: MT102, 24 h, read-out: GI
Pseudomonas aeruginosa [18] = experiment: Growth inhibition of Pseudomonas aeruginosa MH602 at 500 uM after 24 hrs relative to control; settings: MH602, 24 h, read-out: GI
Escherichia coli [19] = experiment: Inhibition of LuxR-dependent quorum sensing activity in Escherichia coli MT102 harboring pJBA132 assessed as inhibition of OHHL-induced GFP expression at 1 mM measured after 24 hrs by fluorescence assay relative to control
Escherichia coli [20] = experiment: Growth inhibition of Escherichia coli MT102 at 500 uM after 24 hrs relative to control; settings: MT102, 24 h, read-out: GI
Escherichia coli [21] = experiment: Growth inhibition of Escherichia coli MT102 at 2 mM after 24 hrs relative to control; settings: MT102, 24 h, read-out: GI
Escherichia coli [22] = experiment: Inhibition of LuxR-dependent quorum sensing activity in Escherichia coli MT102 harboring pJBA132 assessed as inhibition of OHHL-induced GFP expression at 2 mM measured after 8 hrs by fluorescence assay relative to control
Pseudomonas aeruginosa [23] = experiment: Growth inhibition of Pseudomonas aeruginosa MH602 at 2 mM after 24 hrs relative to control; settings: MH602, 24 h, read-out: GI
Pseudomonas aeruginosa [24] = experiment: Inhibition of LasR-dependent quorum sensing activity in Pseudomonas aeruginosa MH602 harboring GFP-fused […] LasB promoter assessed as inhibition of 3-oxo-dodecanoyl HSL-induced GFP expression at 500 uM measured after 24 hrs by fluorescence assay relative to control
Escherichia coli [25] = experiment: Growth inhibition of Escherichia coli MT102 at 1 mM after 8 hrs relative to control; settings: MT102, 8 h, read-out: GI
Pseudomonas aeruginosa [26] = experiment: Growth inhibition of Pseudomonas aeruginosa MH602 at 2 mM after 8 hrs relative to control; settings: MH602, 8 h, read-out: GI
Pseudomonas aeruginosa [27] = experiment: Growth inhibition of Pseudomonas aeruginosa PA14 at 2 mM after 24 hrs relative to control; settings: 2000 µM

Structure (SMILES): CC(=O)OC[C@H]1O[C@@H](OC(C)=O)[C@H](NC(=O)Cc2ccc(Br)cc2)[C@@H](OC(C)=O)[C@@H]1OC(C)=O
- inhibition (Escherichia coli [1]): 71.2%
- inhibition at 2000 µM (Escherichia coli [2]): 0%
- inhibition (Pseudomonas aeruginosa [3]): 10%
- inhibition (Pseudomonas aeruginosa [4]): 6.8%
- inhibition (Pseudomonas aeruginosa [5]): 13.1%
- inhibition at 500 µM (Pseudomonas aeruginosa [6]): 0%
- inhibition [7]: 0.8%
- inhibition at 1000 µM (Pseudomonas aeruginosa [8]): 0%
- inhibition at 1000 µM (Pseudomonas aeruginosa [9]): 0%
- inhibition (Escherichia coli [10]): 8.5%
- inhibition (Pseudomonas aeruginosa [11]): 4.4%
- inhibition (Escherichia coli [12]): 5.1%
- inhibition (Escherichia coli [13]): 8.4%
- inhibition (Pseudomonas aeruginosa [14]): 3.2%
- inhibition at 500 µM (Escherichia coli [15]): 0%
- inhibition [16]: 26.2%
- inhibition at 1000 µM (Escherichia coli [17]): 0%
- inhibition at 500 µM (Pseudomonas aeruginosa [18]): 0%
- inhibition (Escherichia coli [19]): 36.1%
- inhibition at 500 µM (Escherichia coli [20]): 0%
- inhibition at 2000 µM (Escherichia coli [21]): 0%
- inhibition (Escherichia coli [22]): 8.1%
- inhibition at 2000 µM (Pseudomonas aeruginosa [23]): 0%
- inhibition (Pseudomonas aeruginosa [24]): 11.2%
- inhibition at 1000 µM (Escherichia coli [25]): 0%
- inhibition at 2000 µM (Pseudomonas aeruginosa [26]): 0%
- growth inhibition (GI) (Pseudomonas aeruginosa [27]): Non-Toxic
